Experimental data published in US20140100183A1, “CENTRAL ADMINISTRATION OF STABLE FORMULATIONS OF THERAPEUTIC AGENTS FOR CNS CONDITIONS” (The Regents of the University of Colorado, a body corporate, priority 2006, published 2014).
“And” between values parts separate entries of the source, which are not always exact repeats. Identical values can stand only once. Like-named read-outs stand apart in the source and are kept apart here.

Experiments:
animals = assay: Behavioral toxicology: openfield, elevated plus, ataxia; format: in vivo
Procedure: Several animal models as described below were used to determine the efficacy of formulations containing different concentrations of the drug. The animals were also tested for toxic effects as described in the table, below.
All animals are assessed for ataxia, which is a measure of altered gate and ability to change body position. They are also placed on their acks and time to “righting” measured.

human = conditions: cited from earlier work
[1] = system: pentylenetetrazole (PTZ) seizure induction in rats; assay: Pentylenetetrazole (PTZ) seizure induction model, ICV administration; format: in vivo, rat; conditions: for % Change: drug group vs vehicle group (-V); for Rodent ICV dose: effective daily dose, blocking seizures; for Efficacy: effective in blocking seizures
Procedure: Rats are anesthetized, placed in a stereotaxic instrument and a burr hole opened over one anterior lateral ventricle. A cannula is lowered to the ventricle and 5 μl of solution containing the drug is injected into the ventricle over 10 minutes. The incision is then closed and the animal allowed to regain consciousness and remain conscious for 10 minutes. After 10 minutes has elapsed, pentylenetetrazole (PTZ, 10 mg/ml in saline) is injected through a tail-vein catheter at a constant rate of infusion (1 ml/min, Razel syringe pump) until a motor seizure is induced. PTZ seizures are identified as myoclonic jerking followed by clonus and tonus. The time from the initial application of PTZ to the first clonic seizure (i.e., forelimb clonus) is measured and defined as “latency to seiqure onset”. The total amount of PTZ infused is calculated and then divided by each rat;s body weight to obtain the dose (mg/kg) of PTZ. The dose required to attain status epilepticus is compared to the PTZ dose without antiseizure medication.

[2] = system: anxiety in rats (elevated plus maze, open field); assay: Elevated plus maze and open field conflicts test after ICV antidepressants; format: in vivo, rat; conditions: elevated plus maze and open field conflicts test
Procedure: Various antidepressants were injected via ICV, and animals monitored in standard elevated plus maze and open field conflicts test.
Rats are placed in the center of a pluz-shaped maze. The arms are 13 cm wide; two arms were open and two are enclosed by 32 cm high walls. The maze is elevated off the flor by 51 cm. The percent of time and distance traveled in each type of arm over the 4 minute test period is calculated by computer. Increased time and distance traveled in the open arms is thought to reflect anxiolytic activity.
Rats are place against 1 side of a 104 cm square box with 32 cm sides. The activity of the rat is monitored by computer over a 4 minute testing period. A computer divides the openfied space into 25 equal squares arranged into an outer:ring” of 16 squares, a middle region of 8 squares and a central square. The percent of time and distarnce traveled in the center square by rats receiving the drug are calculated and compared to rats receiving a saline control. Increased time and distance traveled in the center square is thought to reflect anxiolytic activity.

[3] = system: prenatally stressed Sprague Dawley rats; assay: Chronic ICV clozapine by osmotic minipump in schizophrenia model (Example 3); format: in vivo, rat
Procedure: After 1 week recovery from surgery, at least 10 baseline recording sessions are performed in which 30 pairs of identical auditory click stimuli are presented and the evoked potentials are recorded and averaged. This establishes the baseline parameters for sensory inhibition in the rats.
Formulations described above are administered into the ventricles using an osmotic minipump to deliver 0.5 μl/hr for 14 days. The rats have a chronic recording electrode implant that allows repeated awake recording over several days and a ventricular cannula to permit withdrawal of CSF. Sensory inhibition is recorded on alternate days for the 14 days of the pump duration. At the end of each recording session, blood and CSF are sampled under light anesthesia to assess levels of the active agent. Brain penetration and distribution are assessed using tritiated active agent/excipient complex in the osmotic minipump in a separate group of animals. […] A rat model of deficient sensory inhibition is used which allows us to sample both fluids repeatedly over several days.
Two days later, alternate day recording of sensory inhibition begins and continues for the full 14 days of the pump. […] Data are analyzed by analysis of variance and appropriate a posteriori analyses performed wherever significant differences are found (p<0.05).

schizophrenia patients = conditions: Iqbal et al. 2003; cited from earlier work
[4] = cited from earlier work
[5] = system: sensory inhibition deficits in DBA/2 mice; assay: Sensory inhibition (paired auditory stimuli, TC ratio) after acute ICV administration; format: in vivo, mouse; conditions: for conditioning amplitude / test amplitude: vs baseline; for Rodent ICV dose: effective daily dose, mice
Procedure: The following methods were used to record the sensory inhibition.
The deficit in sensory inhibition can be quantified using the paired stimulus paradigm in which 2 identical stimuli are delivered 0.5 seconds apart and the electrophysiological response to each is recorded. In normal individuals, the response to the second, or test, stimulus, occurring 50 msec after stimulus onset, is reduced compared to the response to the first, or conditioning stimulus. However, schizophrenia patients have similar magnitude responses to both stimuli: The “TC ratio” is calculated by dividing the test amplitude by the conditioning amplitude. […] In normal individuals, the TC ratio is generally less than 0.4 while schizophrenia patients commonly have TC ratios above 0.5 and often approaching or exceeding 1.0.
In the present study, briefly, 5 baseline records were obtained in response to the paired auditory stimuli, prior to drug administration. […] Recordings were obtained at 5 minute intervals for 90 minutes post injection. Data analyzed included the amplitude of the response to the first stimulus (conditioning amplitude), amplitude of the response to the second stimulus (test amplitude) and the TC ratio (test amplitude/conditioning amplitude). This final parameter gives a measure of the level of inhibition in the circuit initiated by the conditioning stimulus. […] DBA/2 mice routinely have TC ratios of ≧0.8.

[6] = system: sensory inhibition deficits in DBA/2 mice; assay: Chronic ICV clozapine (7 day minipump), sensory inhibition; format: in vivo, mouse; conditions: 0.25 μl/hr for 7 days
Procedure: DBA/2 mice are implanted with a chronic indwelling cannula aimed at one anterior lateral ventricle (Alzet Brain Infusion system) which is connected to an osmotic minipump delivering 0.25 μl/hr for 7 days. On the 7th day, the mouse is anesthetized, placed in a stereotaxic instrument, a burr hole opened in the skull over the contralateral dorsal hippocampus and a recording electrode lowered to the CA3 region of the hippocampus. Evoked EEG responses to closely paired (0.5 msec apart) identical tones are recorded.

[7] = system: primary mouse cortical neuron cultures; assay: Toxicity in primary mouse cortical neuron cultures (MTT)
Procedure: In addition, a preliminary assessment of the toxicity of cyclodextrin in primary mouse cortical neuron cultures was performed. […] After dissection, and cellular dissociation, the cells were washed with Dulbecco's Modified Eagle's Medium with 10% fetal bovine serum. Following recentrifugation, the cells resuspended in plating medium, counted with trypan blue and plated at a constant density of 6.5×10^4 cells per well in a 96-well pre-coated plate. […] The cultures were maintained at 37° C. in a humidified atmosphere of 5% CO2. […] The cultures were incubated and cell toxicity assayed at 24, 48 and 72 hours. Viability was assessed by the MTT (3-(4,5 diethylthiazol-2-yl)-2,5)diphenyltetrazolium bromide) assay, CellTiter 96 Non-radioactive cell Proliferation Assay (Promega, Madison Wis.) and by visual examination.

[8] = for prevention of precipitation on titration: even at very alkaline pH (≈11)
[9] = qualitative, solvents as given in the source; cited from earlier work
[10] = system: patients diagnosed with epilepsy disorders; assay: ICV or cisterna magna treatment of epilepsy (Example 6); format: in vivo, human; conditions: central administration, 0.01 to 0.1 mg per hour, 1 week
Text: After 1 week of treatment, epileptic frequency is reduced.

[11] = human dose is IV not oral for this drug
[12] = rodent ICV dose vs human oral equivalent

## Nc1ncnc2c1ncn2[C@@H]1O[C@H](CO)[C@@H](O)[C@H]1O [Adenosine]
animals; rat, in vivo
  Highest non-toxic concentration: 0.0694 mg/mL
human; [11]
  Human oral equivalent: 0.1 mg/kg
[1]
  % Change: 90%
  Rodent ICV dose: 0.001336 mg/kg
  Efficacy: effective in blocking
[1]; [11]
  % of Oral dose: 1.3%
[2]
  efficacy following ICV administration: efficacy

## CN1CCN(C2=Nc3cc(Cl)ccc3Nc3ccccc32)CC1 [Clozapine, 8-chloro-11-(4-methyl-1-piperazinyl)-5H-dibenzo [b,e][1,4] diazepine]
[3]; 0.5 μl/hr for 14 days, steady state
  plasma levels: extremely low or not detectable
[3]; 14 days
  sensory inhibition: improvement in sensory inhibition
Schizophrenia patients
  patients who discontinue due to systemic side effects: 17%
animals; rat, in vivo
  Highest non-toxic concentration: 50 mg/mL
[4]; acidic conditions, pH 2
  partition coefficient: 0.4
[4]
  Solubility in water: practically insoluble
[4]; pH 7.4 (Merck Index, 2004)
  octanol-to-water partition coefficient: 1000
[5]; 0.5 μg ICV
  conditioning amplitude: increases in conditioning amplitude, though the latter did not reach statistical significance
  test amplitude: decreases in test amplitude
[5]; 1.0 μg ICV
  time post injection with significantly reduced test amplitudes: 35 min
  conditioning amplitude: significantly increased conditioning amplitudes
  test amplitude: significantly reduced test amplitudes
[5]; acute effective dose for improvement of sensory inhibition deficits in mice
  Efficacy: acute effective
[5]
  Rodent ICV dose: 0.040 mg/kg
[5]; listed as clozapine
  Rodent ICV dose: about 0.040 mg/kg
[5]; [12]
  % of Oral dose: 0.5%
[5]; same mouse model, vs Simosky et al 2002
  ICV dose lower than systemically administered dose: > 1000 fold
rats; chronic ICV versus intraperitoneal (IP)
  accumulation of drug in peripheral tissues and organs: significantly less accumulation of drug in peripheral tissues and organs
rats; rat, in vivo
  CNS pathology and systemic toxicity: minimal or no CNS pathology and low systemic toxicity
[6]
  response to the second tone: significant decreases in the response to the second tone
[7]; In vitro primary cortical cell culture
  Highest non-toxic concentration: 10 µg/mL
[7]; clozapine formulated with cyclodextrin
  final concentration at which significant toxicity was observed: ≥ 10 μg/mL and ≥ 30 μM
human; effective daily dose, oral
  Human oral equivalent: 7.5 mg/kg
[8]; acidified with HCl, no solubility enhancing agent
  pH until which addition of NaOH has little effect on solubility: ~6.5
[8]; cyclodextrin
  prevention of precipitation on titration: prevented clozapine precipitation
[8]; cyclodextrin-to-clozapine molar ratio of 2:1
  pH up to which precipitation is inhibited: ≤ 9.0
[8]; octyl glucoside
  prevention of precipitation on titration: prevented clozapine precipitation
[8]; polyethylene glycol (PEG 4000)
  prevention of precipitation on titration above neutral pH: not able to prevent clozapine precipitation
[8]; polyvinylpyrrolidone (PVP 10K)
  prevention of precipitation on titration above neutral pH: not able to prevent clozapine precipitation

## NC(=O)OCC(COC(N)=O)c1ccccc1 [Felbamate, 2-phenyl-1,3-propanediol dicarbamate]
[9]
  Comments: solubility: Freely soluble in water and in alcohol; soluble in acetone; insoluble in ether and in benzene
animals; Behavioral: openfield, elevated plus, ataxia
  Highest non-toxic concentration: 0.056 mg/mL
[10]
  alleviation of seizures: efficacious therapeutic alleviation of seizures
human; effective daily dose, oral
  Human oral equivalent: 20 mg/kg
[1]
  % Change: 60%
  Rodent ICV dose: 0.08242 mg/kg
  Efficacy: effective in blocking
[1]; listed as felbamate
  Rodent ICV dose: about 0.08242 mg/kg
[1]; [12]
  % of Oral dose: 0.4%
